{
  "source": "patent EP3414211B1",
  "about": "“PLASTER COMPOSITION” (priority 2016, dated 2017)",
  "key": {"[1]": {"assay": "Foamability (foam volume) after one minute of foam generation with an Ultra Turrax system at 8200 rpm", "assay_type": "physicochemical", "description": "The \"foamability\", i.e. the volume of foam produced, and the foam stability were tested for a number of combinations of foaming agent and co-surfactant. Specifically, a number of foaming solutions were prepared containing various amounts of foaming agent and co-surfactant. The following foaming agents were tested: FA1 mixture of linear sodium octyl sulfate, sodium decyl sulfate, and sodium dodecyl sulfate as described in EP1328485. FA2 sodium n-decyl sulfate (Empicol® 0758, available from Huntsman) FA3 alkyl ether sulfate (Millifoam® H, available from Huntsman) FA4 STEOL ® DES32-IS (alkyl ether sulfate based surfactant, available from Stepan)\nEach of the foaming agents was mixed with 5 wt%, 10 wt%, and 20 wt% (relative to the weight of foaming agent) of the following co-surfactants: CS1 lauramine oxide (dodecyldimethylamine oxide), available under the trade name Empigen® OB (Huntsman Performance Products) CS2 C8-10alkyl polyglucoside available under the trade name Glucopon 215® (comparative example)\n(§1) For each mixture, foamability (foam volume) and foam stability were measured after one minute of foam generation with an Ultra Turrax system at 8200 rpm."}, "[2]": {"assay": "Foam stability (foam half-life: time to recover one half of the original liquid volume from the foam)", "assay_type": "physicochemical", "description": "as §1\nAlso the foam stability was tested, by measuring the foam half-life, i.e. the amount of time it takes to recover one half of the original volume of liquid from a measured volume of foam."}, "[3]": {"settings": "co-surfactant mixed at 5, 10, 20 wt% with foaming agents"}},
  "data": [
    {"smiles": "CCCCCCCCCCCC[N+](C)(C)[O-]", "note": "[CS1, dodecyldimethylamine oxide]", "values": [
      {"measurement": "effect of co-surfactant on foamability (foam volume) of the foaming agents", "setting": "[1]; [3]", "value": "significantly increase"},
      {"measurement": "effect of co-surfactant on foam stability", "setting": "[2]; [3]", "value": "highest foam stability improvement"}
    ]},
    {"smiles": "CCCCCCCCCCOS(=O)(=O)[O-].[Na+]", "note": "[FA2, sodium n-decyl sulfate]", "values": [
      {"measurement": "Foam volume increase (%)", "setting": "[1]; 0 % CS1 (baseline)", "value": 0, "unit": "%"},
      {"measurement": "Foam volume", "setting": "[1]; 0 % CS1 (wt% relative to total foaming agent and co-surfactant)", "value": 530, "unit": "mL"},
      {"measurement": "Foam volume", "setting": "[1]; 5 % CS1", "value": 562, "unit": "mL"},
      {"measurement": "Foam volume increase (%)", "setting": "[1]; 5 % CS1, versus 0 % CS1", "value": 6, "unit": "%"},
      {"measurement": "Foam volume", "setting": "[1]; 10 % CS1", "value": 599, "unit": "mL"},
      {"measurement": "Foam volume increase (%)", "setting": "[1]; 10 % CS1, versus 0 % CS1", "value": 13, "unit": "%"},
      {"measurement": "Foam volume", "setting": "[1]; 20 % CS1", "value": 588, "unit": "mL"},
      {"measurement": "Foam volume increase (%)", "setting": "[1]; 20 % CS1, versus 0 % CS1", "value": 11, "unit": "%"},
      {"measurement": "Half-life", "setting": "[2]; 0 % CS1", "value": 5.78, "unit": "min"},
      {"measurement": "Half-life increase (%)", "setting": "[2]; 0 % CS1 (baseline)", "value": 0, "unit": "%"},
      {"measurement": "Half-life", "setting": "[2]; 5 % CS1", "value": 6.18, "unit": "min"},
      {"measurement": "Half-life increase (%)", "setting": "[2]; 5 % CS1, versus 0 % CS1", "value": 7, "unit": "%"},
      {"measurement": "Half-life", "setting": "[2]; 10 % CS1", "value": 6.87, "unit": "min"},
      {"measurement": "Half-life increase (%)", "setting": "[2]; 10 % CS1, versus 0 % CS1", "value": 11, "unit": "%"},
      {"measurement": "Half-life", "setting": "[2]; 20 % CS1", "value": 8.4, "unit": "min"},
      {"measurement": "Half-life increase (%)", "setting": "[2]; 20 % CS1, versus 0 % CS1", "value": 36, "unit": "%"}
    ]}
  ]
}
